tested on: H358 (KRAS G12C mutant) cells; assay: Tumor cell proliferation inhibition experiment (Cell Titer-Glo luminescent cell viability assay); conditions: Homo sapiens, NCI-H358, 72 h, read-out: NCI-H538 IC50(nm)
Method: H358 (KRAS G12C mutant) cells were digested, centrifuged, and resuspended. Cell density was determined using a Scepter automated cell counter. The cells were diluted to a solution containing 44,000 cells per milliliter. The adjusted cell solution was added to 90 µL per well in a 96-well culture plate. The 96-well plate was placed in a 37°C, 5% CO2 incubator. After culturing the cells for 24 hours, different concentrations of the test compound were added. The cells were then cultured with the compound for 72 hours in the presence of 10% fetal bovine serum. The ATP content was measured using the Cell Titer-Glo luminescent cell viability assay kit (see manufacturer's instructions for details) to assess cell growth inhibition. In short, 30 µL of Cell Titer-Glo reagent was added to each well, and the plate was shaken for 10 minutes to induce cell lysis. The fluorescence signal was detected and recorded using a Fluoroskan Ascent FL (Thermo). The maximum signal value was obtained from cells treated with dimethyl sulfoxide for 72 hours. Minimum signal value was obtained from a single culture medium (zero cell count). Inhibition rate % = (maximum signal value - minimum signal value) / (maximum signal value - minimum signal value × 100%). Data was processed using GraphPadprism 5 software. IC50 values were calculated by fitting an S-shaped dose-response curve.

| Structure (SMILES) | IC50 [nM] |
| --- | --- |
| C=CC(=O)N1CCN(c2nc(OC[C@@]34CCCN3C[C@H](F)C4)nc3c2CS(=O)(=O)C(c2nc(N)cc(C)c2C(F)(F)F)C3)C[C@@H]1CC#N (stereo partly drawn) [Compound 7, 2-((2S)-4-(7-(6-amino-4-methyl-3-(trifluoromethyl)pyridin-2-yl)-2-(((2R,7AS)-2-fluorotetrahydro-1H-pyrrolazin-7a(5H)-yl)methoxy)-6,6-dioxo-7,8-dihydro-5H-thiaran[4,3-d]pyrimidin-4-yl)-1-(acryloyl)pyrazin-2-yl)acetonitrile] | < 10 |
| C=C(F)C(=O)N1CCN(c2nc(OC[C@@]34CCCN3C[C@H](F)C4)nc3c2CS(=O)(=O)C(c2nc(N)cc(C)c2C(F)(F)F)C3)C[C@@H]1CC#N (stereo partly drawn) [Compound 8, 2-((2S)-4-(7-(6-amino-4-methyl-3-(trifluoromethyl)pyridin-2-yl)-2-(((2R,7AS)-2-fluorotetrahydro-1H-pyrrolazin-7a(5H)-yl)methoxy)-6,6-dioxo-7,8-dihydro-5H-thiaran[4,3-d]pyrimidin-4-yl)-1-(2-fluoroacryloyl)pyrazin-2-yl)acetonitrile] | < 10 |

Continued, values first:

| IC50 [nM] | Structure (SMILES) |
| --- | --- |
| < 10 | C=CC(=O)N1CCN(c2nc(OC[C@@]34CCCN3C[C@H](F)C4)nc3c2CS(=O)(=O)[C@H](c2nc(N)cc(C)c2C(F)(F)F)C3)C[C@@H]1CC#N [Compound 7A, 2-((2S)-4-((7S)-7-(6-amino-4-methyl-3-(trifluoromethyl)pyridin-2-yl)-2-(((2R,7AS)-2-fluorotetrahydro-1H-pyrrolazin-7a(5H)-yl)methoxy)-6,6-dioxo-7,8-dihydro-5H-thiaran[4,3-d]pyrimidin-4-yl)-1-(acryloyl)pyrazin-2-yl)acetonitrile] |
| < 10 | C=CC(=O)N1CCN(c2nc(OC[C@@]34CCCN3C[C@H](F)C4)nc3c2CS(=O)(=O)[C@@H](c2nc(N)cc(C)c2C(F)(F)F)C3)C[C@@H]1CC#N [Compound 7B, 2-((2S)-4-((7R)-7-(6-amino-4-methyl-3-(trifluoromethyl)pyridin-2-yl)-2-(((2R,7AS)-2-fluorotetrahydro-1H-pyrrolazin-7a(5H)-yl)methoxy)-6,6-dioxo-7,8-dihydro-5H-thiaran[4,3-d]pyrimidin-4-yl)-1-(acryloyl)pyrazin-2-yl)acetonitrile] |
| < 10 | C=C(F)C(=O)N1CCN(c2nc(OC[C@@]34CCCN3C[C@H](F)C4)nc3c2CS(=O)(=O)[C@H](c2nc(N)cc(C)c2C(F)(F)F)C3)C[C@@H]1CC#N [Compound 8A, 2-((2S)-4-((7S)-7-(6-amino-4-methyl-3-(trifluoromethyl)pyridin-2-yl)-2-(((2R,7AS)-2-fluorotetrahydro-1H-pyrrolazin-7a(5H)-yl)methoxy)-6,6-dioxo-7,8-dihydro-5H-thiaran[4,3-d]pyrimidin-4-yl)-1-(2-fluoroacryloyl)pyrazin-2-yl)acetonitrile] |
| < 10 | C=C(F)C(=O)N1CCN(c2nc(OC[C@@]34CCCN3C[C@H](F)C4)nc3c2CS(=O)(=O)[C@@H](c2nc(N)cc(C)c2C(F)(F)F)C3)C[C@@H]1CC#N [Compound 8B, 2-((2S)-4-((7R)-7-(6-amino-4-methyl-3-(trifluoromethyl)pyridin-2-yl)-2-(((2R,7AS)-2-fluorotetrahydro-1H-pyrrolazin-7a(5H)-yl)methoxy)-6,6-dioxo-7,8-dihydro-5H-thiaran[4,3-d]pyrimidin-4-yl)-1-(2-fluoroacryloyl)pyrazin-2-yl)acetonitrile] |
